Measured values: ChEMBL document CHEMBL5303304, “EUbOPEN Chemogenomics Library - IncuCyte” (2023)
“And” between values parts separate entries of the source, which are not always exact repeats. Identical values can stand only once.

Tests used:
Format in all cases: toxicity, cell-based
[1] = tested on: U2OS; assay: Incucyte cell viability with U2OS; conditions: human, 10 µM, compound concentration 10 uM
[2] = tested on: Fibroblast; assay: Incucyte cell viability with human fibroblast; conditions: 10 µM, compound concentration 10 uM
[3] = tested on: HEK-293T; assay: Incucyte cell viability with HEK293T; conditions: human, 10 µM, compound concentration 10 uM
Also: unitless GR value; below 1 slowed growth and below 0 cell loss.

| Compound | Growth Rate ([1]; 0 h, replicate number 1) | Growth Rate ([1]; 0 h, replicate number 2) | Growth Rate ([1]; 6 h, replicate number 1) | Growth Rate ([1]; 6 h, replicate number 2) | Growth Rate ([1]; 12 h, replicate number 1) | Growth Rate ([1]; 12 h, replicate number 2) | Growth Rate ([1]; 18 h, replicate number 1) | Growth Rate ([1]; 24 h, replicate number 1) | Growth Rate ([2]; 6 h, replicate number 1) | Growth Rate ([2]; 18 h, replicate number 1) | Growth Rate ([2]; 18 h, replicate number 2) | Growth Rate ([2]; 24 h, replicate number 1) | Growth Rate ([2]; 24 h, replicate number 2) | Growth Rate ([3]; 0 h, replicate number 2) | Growth Rate ([3]; 6 h, replicate number 1) | Growth Rate ([3]; 12 h, replicate number 1) | Growth Rate ([3]; 18 h, replicate number 1) | Growth Rate ([3]; 18 h, replicate number 2) | Growth Rate ([3]; 24 h, replicate number 1) | Growth Rate ([3]; 24 h, replicate number 2) | other results |
| --- | --- | --- | --- | --- | --- | --- | --- | --- | --- | --- | --- | --- | --- | --- | --- | --- | --- | --- | --- | --- | --- |
| COc1cc2c(NC3CCN(C(C)C)CC3)nc(C3CCCCC3)nc2cc1OCCCN1CCCC1 | -0.98 | 0.19 | 0.4 | 0.03 | 0.2 | -0.13 | 0.05 | -0.01 | -0.16 | -0.27 | -0.46 | -0.35 | -0.46 | -1 | -0.49 | -0.43 | -0.39 | -0.38 | -0.26 | -0.39 | Growth Rate ([1]; 18 h, replicate number 2): -0.16; Growth Rate ([1]; 24 h, replicate number 2): -0.23; Growth Rate ([2]; 6 h, replicate number 2): -0.65; Growth Rate ([2]; 12 h, replicate number 1): -0.07; Growth Rate ([2]; 12 h, replicate number 2): -0.48; Growth Rate ([3]; 6 h, replicate number 2): -0.51; Growth Rate ([3]; 12 h, replicate number 2): -0.45 |
| CC(N)C1CCC(C(=O)Nc2ccncc2)CC1 (configuration not stated) | 0.26 | -0.73 |  |  |  |  |  |  |  | -0.47 |  | 0.52 |  | 0.58 |  |  |  |  |  |  | Growth Rate ([2]; 0 h, replicate number 1): -0.76; Growth Rate ([3]; 0 h, replicate number 1): -0.35 |
| COc1cc(OC)cc(-c2cc3cnc(N)nc3nc2NC(=O)NC(C)(C)C)c1 |  | 0.36 and 0.2 | 0.92 |  | 0.8 |  | 0.67 and 0.9 | 0.91 | -0.05 |  | 0.45 |  | 0.45 | -0.38 | 0.92 | 0.8 | 0.71 | 0.36 and 0.62 | 0.65 and 0.98 | 0.38 and 0.68 | Growth Rate ([2]; 0 h, replicate number 2): 0.79; Growth Rate ([2]; 6 h, replicate number 2): 0.11 |
| Cc1cn(CCN2CCN(c3ccccc3-c3cc(C#N)cc(C(=O)NCCCN4CCCC4)c3)CC2)c2ccccc12 | -1 | -0.98 | -0.93 | -0.89 | -0.85 | -0.84 | -0.75 | -0.72 | -0.88 | -0.68 | -0.81 | -0.66 | -0.71 | -1 | -0.62 | -0.46 | -0.45 | -0.47 | -0.38 | -0.39 | Growth Rate ([1]; 18 h, replicate number 2): -0.77; Growth Rate ([1]; 24 h, replicate number 2): -0.74; Growth Rate ([2]; 6 h, replicate number 2): -0.91; Growth Rate ([2]; 12 h, replicate number 1): -0.74; Growth Rate ([2]; 12 h, replicate number 2): -0.87; Growth Rate ([3]; 6 h, replicate number 2): -0.59; Growth Rate ([3]; 12 h, replicate number 2): -0.49 |
| Cc1ccc(S(=O)(=O)O)cc1.Cn1cc(-c2ccc(F)c(C(F)(F)F)c2)nc1C1CCN(c2ncnc3[nH]ncc23)CC1 | 0.87 | -1 |  |  |  |  |  |  | -1 |  |  |  |  | -0.63 |  |  |  |  |  | 0.9 | Growth Rate ([2]; 0 h, replicate number 1): 0.54; Growth Rate ([2]; 0 h, replicate number 2): -0.97; Growth Rate ([3]; 0 h, replicate number 1): 0.72 |
| c1ccc2c(-c3coc4cc(-c5ccc(N6CCNCC6)cc5)cnc34)ccnc2c1 |  | 0.9 |  | 0 | 0.59 | -0.36 | 0.14 | -0.05 |  | 0.29 | 0.28 | 0.1 | 0.11 | -1 | -0.57 | -0.52 | -0.42 | -0.43 | -0.3 | -0.33 | Growth Rate ([1]; 18 h, replicate number 2): -0.38; Growth Rate ([1]; 24 h, replicate number 2): -0.46; Growth Rate ([2]; 0 h, replicate number 1): 0.87; Growth Rate ([2]; 12 h, replicate number 1): 0.93; Growth Rate ([2]; 12 h, replicate number 2): 0.61; Growth Rate ([3]; 6 h, replicate number 2): -0.5; Growth Rate ([3]; 12 h, replicate number 2): -0.56 |
| CC1(C)C(=O)N([C@H]2CCc3c(O)cccc32)c2nc(Nc3cccc(CN4CCCC4)c3)ncc21 | -0.88 | 0.2 | 0.38 | -0.15 | 0.05 | -0.3 | -0.08 | -0.27 | -0.49 | -0.44 | -0.52 | -0.42 | -0.52 | -1 | -0.69 | -0.53 | -0.36 | -0.35 | -0.28 | -0.32 | Growth Rate ([1]; 18 h, replicate number 2): -0.3; Growth Rate ([1]; 24 h, replicate number 2): -0.38; Growth Rate ([2]; 6 h, replicate number 2): -0.63; Growth Rate ([2]; 12 h, replicate number 1): -0.4; Growth Rate ([2]; 12 h, replicate number 2): -0.57; Growth Rate ([3]; 6 h, replicate number 2): -0.56; Growth Rate ([3]; 12 h, replicate number 2): -0.41 |
